Results published in patent US6914045B2, “Glycopeptide antibiotics” (Wyeth Holdings Corporation, priority 2001, dated 2005).
Numbered stars: 1 amine (or outer) side, 2 acyl side, 3 side chain; on linkers, the order of the positions; unused ones are H or OH. Square brackets hold non-standard residues; d marks the D form. Peptide text beside a SMILES is read from it. ξ: configuration not given here. X1 = N=C1NCC(C(O)C(N[*:1])C(=O)[*:2])N1C1OC(CO)C(O)C(O)C1O; ξEnduracididine(βξ-OH,4'ξ) = N=C1NCC(C(O)C(N)C(=O)O)N1; Tyr(3-NO2) = N[CH](Cc1ccc(O)c([N+](=O)[O-])c1)C(=O)O; ξPhe(βξ-Me) = CC(c1ccccc1)C(N)C(=O)O

Tests used:
Experiment in all cases: in vitro antibacterial evaluation, MIC by broth dilution
Format in all cases: cell-based
Streptococcus sp. = conditions: broth dilution, 18 hours at 35° C.
Summary of the method: (§1)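 Test organisms, which included recent clinical isolates resistant to methicillin, penicillin and/or vancomycin, were inoculated at 5×10^5 CFU/mL into Muller-Hinton II […] containing antibiotic at 64-0.06 μg/mL. Minimum inhibitory concentrations were then read as the lowest level inhibiting growth.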

Staphylococcus sp. = test system: Staphylococcus sp.
Summary of the method: as §1

Enterococcus sp. = conditions: broth dilution, 18 hours at 35° C.
Summary of the method: as §1

Escherichia coli = conditions: 18 hours at 35° C.
Summary of the method: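 MIC is the lowest antibiotic concentration (tested 64-0.06 μg/mL) preventing growth of a 5×10^5 CFU/mL inoculum. Determined by broth dilution in Mueller-Hinton II medium following NCCLS standard M7-A2.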

CC(c1ccccc1)C1NC(=O)CNC(=O)C(CO)NC(=O)C(C(O)C2CNC(=N)N2C2OC(CO)C(O)C(O)C2O)NC(=O)C(C(O)C2CNC(=N)N2)NC(=O)C(Cc2ccc(O)c([N+](=O)[O-])c2)NC1=O (stereo not drawn) [Example 8, Cyclo[glycyl-β-methylphenylalanyl-3-nitrotyrosyl-3-(2-iminoimidazolidin-4-yl)seryl-3-(3-hexopyranosyl-2-iminoimidazolidin-4-yl)serylseryl]] (cyclo(G[ξPhe(βξ-Me)][Tyr(3-NO2)][ξEnduracididine(βξ-OH,4'ξ)][X1]S); configuration not given here)
>128 µg/mL: MIC Streptococcus agalactiae (GC 4564) (Streptococcus sp.; strain GC 4564) | MIC Streptococcus pneumoniae (GC 4565) (Streptococcus sp.; strain GC 4565) | MIC Streptococcus pyogenes (ID-3187) (Streptococcus sp.; strain ID-3187) | MIC Staphylococcus aureus (ATCC 29213) (Staphylococcus sp.; broth dilution, 18 hours at 35° C.; strain ATCC 29213) | MIC Staphylococcus aureus (GC 1131) (Staphylococcus sp.; broth dilution, 18 hours at 35° C.; strain GC 1131) | MIC Staphylococcus aureus (GC 4541) (Staphylococcus sp.; broth dilution, 18 hours at 35° C.; strain GC 4541) | MIC Staphylococcus aureus (GC 4542) (Staphylococcus sp.; broth dilution, 18 hours at 35° C.; strain GC 4542) | MIC Staphylococcus aureus-SMITH (GC 4543) (Staphylococcus sp.; broth dilution, 18 hours at 35° C.; strain GC 4543) | MIC Staphylococcus aureus (GC 4544) (Staphylococcus sp.; broth dilution, 18 hours at 35° C.; strain GC 4544) | MIC Staphylococcus aureus (GC 4545) (Staphylococcus sp.; broth dilution, 18 hours at 35° C.; strain GC 4545) | MIC Staphylococcus haemolyticus (GC 4546) (Staphylococcus sp.; broth dilution, 18 hours at 35° C.; strain GC 4546) | MIC Coagulase Negative Staphylococcus (GC 4547) (Staphylococcus sp.; broth dilution, 18 hours at 35° C.; strain GC 4547) | MIC Coagulase Negative Staphylococcus (GC 4548) (Staphylococcus sp.; broth dilution, 18 hours at 35° C.; strain GC 4548) | MIC Coagulase Negative Staphylococcus (GC 4549) (Staphylococcus sp.; broth dilution, 18 hours at 35° C.; strain GC 4549) | MIC Coagulase Negative Staphylococcus (GC 4551) (Staphylococcus sp.; broth dilution, 18 hours at 35° C.; strain GC 4551) | MIC Coagulase Negative Staphylococcus (ID-3941) (Staphylococcus sp.; broth dilution, 18 hours at 35° C.; strain ID-3941) | MIC Enterococcus faecalis (ATCC 29212) (Enterococcus sp.; strain ATCC 29212) | MIC Enterococcus faecalis (GC 2242) (Enterococcus sp.; strain GC 2242) | MIC Enterococcus faecium (GC 2243) (Enterococcus sp.; strain GC 2243) | MIC Enterococcus faecalis (GC 4552) (Enterococcus sp.; strain GC 4552) | MIC Enterococcus faecalis (GC 4553) (Enterococcus sp.; strain GC 4553) | MIC Enterococcus faecalis (GC 4554) (Enterococcus sp.; strain GC 4554) | MIC Enterococcus faecium (GC 4556) (Enterococcus sp.; strain GC 4556) | MIC Enterococcus faecium (GC 4557) (Enterococcus sp.; strain GC 4557) | MIC Enterococcus avium (GC 4558) (Enterococcus sp.; strain GC 4558) | MIC Escherichia coli (ATCC 25922) (Escherichia coli; strain ATCC 25922, broth dilution) | MIC Escherichia coli (GC 4559) (Escherichia coli; strain GC 4559, broth dilution) | MIC Escherichia coli (GC 4560) (Escherichia coli; strain GC 4560, broth dilution)

CC(c1ccccc1)C1NC(=O)CNC(=O)C(CO)NC(=O)C(C(O)C2CNC(=N)N2C2OC(CO)C(O)C(O)C2O)NC(=O)C(C(O)C2CNC(=N)N2)NC(=O)C(Cc2ccc(OC3OC(CO)C(OC4OC5COC6(CCCCC6(C)C)OC5C(O)C4O)C(O)C3O)cc2)NC1=O (centres unmarked) [Example 205]
64 µg/mL: MIC Escherichia coli (ATCC 25922) (Escherichia coli)
<0.12 µg/mL: MIC Streptococcus agalactiae (GC 4564) (Streptococcus sp.) | MIC Streptococcus pneumoniae (ATCC 6301) (Streptococcus sp.) | MIC Streptococcus pneumoniae (GC 1894) (Streptococcus sp.) | MIC Streptococcus pneumoniae (GC 4565) (Streptococcus sp.) | MIC Streptococcus pyogenes (GC 4563) (Streptococcus sp.) | MIC Streptococcus pneumoniae (ATCC 6301) (Streptococcus sp.; inoculum 5×10^5 CFU/mL, strain ATCC 6301) | MIC Streptococcus pneumoniae (GC 1894) (Streptococcus sp.; inoculum 5×10^5 CFU/mL, strain GC 1894) | MIC Streptococcus pyogenes (GC 4563) (Streptococcus sp.; inoculum 5×10^5 CFU/mL, strain GC 4563) | MIC Streptococcus agalactiae (GC 4564) (Streptococcus sp.; inoculum 5×10^5 CFU/mL, strain GC 4564) | MIC Streptococcus pneumoniae (GC 4565) (Streptococcus sp.; inoculum 5×10^5 CFU/mL, strain GC 4565)
1 µg/mL: MIC Coagulase Negative Staphylococcus (GC 4548) (Staphylococcus sp.; strain GC 4548; broth dilution, 18 hours at 35° C.) | MIC Coagulase Negative Staphylococcus (GC 4549) (Staphylococcus sp.; strain GC 4549; broth dilution, 18 hours at 35° C.) | MIC Escherichia coli (GC 4560) (Escherichia coli)
128 µg/mL: MIC Escherichia coli (GC 4559) (Escherichia coli)
4 µg/mL: MIC Enterococcus avium (GC 4558) (Enterococcus sp.) | MIC Enterococcus faecalis (GC 2242) (Enterococcus sp.) | MIC Enterococcus faecalis (GC 2691) (Enterococcus sp.) | MIC Enterococcus faecalis (GC 4552) (Enterococcus sp.) | MIC Enterococcus faecalis (GC 4554) (Enterococcus sp.) | MIC Enterococcus faecium (GC 4557) (Enterococcus sp.) | MIC Enterococcus faecalis (GC 2242) (Enterococcus sp.; inoculum 5×10^5 CFU/mL, strain GC 2242) | MIC Enterococcus faecalis (GC 2691) (Enterococcus sp.; inoculum 5×10^5 CFU/mL, strain GC 2691) | MIC Enterococcus faecalis (GC 4552) (Enterococcus sp.; inoculum 5×10^5 CFU/mL, strain GC 4552) | MIC Enterococcus faecalis (GC 4554) (Enterococcus sp.; inoculum 5×10^5 CFU/mL, strain GC 4554) | MIC Enterococcus faecium (GC 4557) (Enterococcus sp.; inoculum 5×10^5 CFU/mL, strain GC 4557) | MIC Enterococcus avium (GC 4558) (Enterococcus sp.; inoculum 5×10^5 CFU/mL, strain GC 4558)
2 µg/mL: MIC Staphylococcus aureus (GC 1131) (Staphylococcus sp.; broth dilution, 18 hours at 35° C., inoculum 5×10^5 CFU/mL; strain GC 1131) | MIC Staphylococcus aureus (ATCC 29213) (Staphylococcus sp.; strain ATCC 29213; broth dilution, 18 hours at 35° C.) | MIC Staphylococcus aureus (GC 1131) (Staphylococcus sp.; strain GC 1131; broth dilution, 18 hours at 35° C.) | MIC Staphylococcus aureus (GC 3051) (Staphylococcus sp.; strain GC 3051; broth dilution, 18 hours at 35° C.) | MIC Staphylococcus aureus (GC 3053) (Staphylococcus sp.; strain GC 3053; broth dilution, 18 hours at 35° C.) | MIC Staphylococcus aureus (GC 4541) (Staphylococcus sp.; strain GC 4541; broth dilution, 18 hours at 35° C.) | MIC Staphylococcus aureus (GC 4542) (Staphylococcus sp.; strain GC 4542; broth dilution, 18 hours at 35° C.) | MIC Staphylococcus aureus-SMITH (GC 4543) (Staphylococcus sp.; strain GC 4543; broth dilution, 18 hours at 35° C.) | MIC Staphylococcus aureus (GC 4544) (Staphylococcus sp.; strain GC 4544; broth dilution, 18 hours at 35° C.) | MIC Staphylococcus aureus (GC 4545) (Staphylococcus sp.; strain GC 4545; broth dilution, 18 hours at 35° C.) | MIC Staphylococcus haemolyticus (GC 4546) (Staphylococcus sp.; strain GC 4546; broth dilution, 18 hours at 35° C.) | MIC Coagulase Negative Staphylococcus (GC 4547) (Staphylococcus sp.; strain GC 4547; broth dilution, 18 hours at 35° C.) | MIC Coagulase Negative Staphylococcus (GC 4551) (Staphylococcus sp.; strain GC 4551; broth dilution, 18 hours at 35° C.) | MIC Enterococcus faecalis (ATCC 29212) (Enterococcus sp.) | MIC Enterococcus faecalis (GC 3059) (Enterococcus sp.) | MIC Enterococcus faecalis (GC 4553) (Enterococcus sp.) | MIC Enterococcus faecalis (GC 6189) (Enterococcus sp.) | MIC Enterococcus faecium (GC 2243) (Enterococcus sp.) | MIC Enterococcus faecium (GC 4556) (Enterococcus sp.) | MIC Enterococcus faecalis (ATCC 29212) (Enterococcus sp.; inoculum 5×10^5 CFU/mL, strain ATCC 29212) | MIC Enterococcus faecium (GC 2243) (Enterococcus sp.; inoculum 5×10^5 CFU/mL, strain GC 2243) | MIC Enterococcus faecalis (GC 3059) (Enterococcus sp.; inoculum 5×10^5 CFU/mL, strain GC 3059) | MIC Enterococcus faecalis (GC 4553) (Enterococcus sp.; inoculum 5×10^5 CFU/mL, strain GC 4553) | MIC Enterococcus faecium (GC 4556) (Enterococcus sp.; inoculum 5×10^5 CFU/mL, strain GC 4556) | MIC Enterococcus faecalis (GC 6189) (Enterococcus sp.; inoculum 5×10^5 CFU/mL, strain GC 6189)
